Consider 62 compounds from a melting point compilation (Tetko et al.; mined from patent text by program, amines drawn as free bases though some values may be those of a salt).

Structures are written as SMILES.

For the compound `CC(=O)SCC(C)C(=O)N(CC(=O)O)C1CCCCCC1` (configuration not stated), the melting point (commonly the temperature, or range, at which the solid turns liquid) was in the range of 116 to 117 °C. The value for `CCOc1nc2c(cnn2CC)nc1C(=O)Cl` was 86 to 87 °C. `CCOCCCc1ccc(Oc2ccc3c(c2)C=C(C(=O)OC)CCS3(=O)=O)cc1` gave a melting point of 93 to 94 °C. The same measure for `CC(=O)OC1CSC(Oc2cccc(-c3cccnc3Cl)c2)C(OC(C)=O)C1OC(C)=O` (configuration not stated): 146 to 147 °C; for `O=C(NC1N=C(c2ccccc2F)c2ccccc2-n2cnnc21)OCc1ccccc1` (configuration not stated): 123 °C.

In turn, `CN(C(=O)CCN)c1nnc(-c2cccnc2)s1` registered a melting point of 110 to 112 °C. The value for `Cc1ncc2n1-c1ccc(Cl)cc1C(c1ccccc1)=NC2` was 187 to 188 °C; that for `Cc1c(Cl)c(=O)[nH][nH]c1=O` was 305 to 310 °C; that for `O=c1[nH]c2ncc(-c3ccc(-c4ncc[nH]4)cc3)nc2n1CC1CCCCC1` was 349 to 351 °C. The same measure for `O=C(Cl)c1cnc(Cl)nc1-c1ccccc1`: 42 °C; for `Cc1c(NC(=O)c2ccc(OC[C@@H]3CCCO3)cc2)ccc2cc(CNC[C@H]3CCCO3)cnc12`: 92 to 94 °C. The same measure for `CCOC(=O)C1=Nc2cc3c(c(C)c2=C1C)N=c1ccc(C#N)cc1=3`: > 240 °C; for `Cc1ccccc1NC(=O)/C=C/C=C/CC1CCc2c(cccc2C(F)(F)F)C1` (configuration not stated): 171 °C; for `CC(=O)NC[C@H]1CN(c2ccc(N3C[C@H]4CN(C(=O)c5cc6ccccc6[nH]5)C[C@H]4C3)c(F)c2)C(=O)O1`: 211 °C. In the case of `CC1CCc2nc(-c3ccccc3)[nH]c(=O)c2C1` (configuration not stated), the melting point was determined as 237 °C. The value for `COC(=O)C=C1C(=O)N(c2ccccc2)C(=O)N1Cc1ccccc1` was 130 °C; that for `N#C/C=C1\CCc2cc(Br)c3c(c21)CCO3` was 200 to 203 °C; that for `CN1CCC(=O)C(c2cccc(C(F)(F)F)c2)C1` (configuration not stated) was 64 to 65 °C. The same measure for `Cc1cc(C)c2c(c1C)OC(=O)C2c1ccc(C(C)C)cc1` (configuration not stated): 107 to 108 °C; for `Oc1cc2c(c3c1CC=CC3)Nc1ccccc1S2`: 166 °C; for `O=C(O)c1ccc2c(c1)S(=O)(=O)c1ccccc1S2`: 297 to 304 °C. The value for `O=C1c2c(c(=O)n3nc(-c4ccccc4)cc3n2Cc2ccccc2)CCN1C1CCCCC1` was 247 to 248 °C. On to `CC(NC1=NS(=O)(=O)c2cc(Br)ccc2N1)C(C)(C)C` (configuration not stated), for which the melting point is > 220 °C. The same measure for `COc1cc(CBr)cc(OC)c1`: 70 to 72 °C. The value for `COC(=O)C1CC2c3cccc4[nH]cc(c34)CC2N(C(C)C)C1` (configuration not stated) was 193 to 195 °C. On to `O=C(c1ccc(F)c(Cl)c1)N1CCC(F)(CNCc2ccc(CF)cn2)CC1`, for which the melting point is 157 to 159 °C.

As for `CCOC(=O)C(=O)Nc1cc(C#N)c(C(C)=O)cc1[N+](=O)[O-]`, the melting point was in the range of 142 to 144 °C. Compound `COc1cc(Nc2c(C#N)cnc3cc(Br)ccc23)c(Cl)cc1Cl` yielded a melting point of 192 to 193 °C.

In turn, `O=C(O)c1ccc(-c2nc(-c3ccc(F)cc3)c(-c3ccncc3)[nH]2)cc1` came in with a melting point of 289 to 290 °C. For the compound `COC(=O)c1cc(OC)c(Cl)c(C)c1Cl`, the melting point was 74 °C. The value for `O=Cc1csc(NC2CC2)n1` was 124 to 127 °C; that for `CC(C(N)=O)c1ccc2c(c1Cl)C(=O)Cc1ccccc1S2` (configuration not stated) was 180 to 181 °C; that for `Cc1c(F)c(F)c(N)c2c(=O)c(C(=O)O)cn(-c3nc(N)c(F)cc3F)c12` was 250 °C. `CCOC1CCC(=O)N1S(=O)(=O)c1ccc(OC)cc1` (configuration not stated) yielded a melting point of 112 to 113 °C.

The compound `Cn1cc(-c2ccccc2)c(=O)c(-c2ccccc2Cl)c1` gave a melting point of 145 °C. The value for `COC(=O)CP(=O)(O)C(CCCc1ccccc1)NC(=O)OCc1ccccc1` (configuration not stated) was 107 to 109 °C. The value for `O=c1oc(C(F)(F)F)nc(-c2ccccc2)c1-c1ccccc1` was 118 °C; that for `O=c1c2cc(Br)ccc2nc(C(S)c2ncnc3[nH]cnc23)n1-c1ccccc1Cl` (configuration not stated) was 212 to 242 °C. The value for `O=C(Nc1cn(C2CCCCO2)nc1C(=O)NCCO)c1ccccn1` (configuration not stated) was 214 to 215 °C; that for `CCOC(=O)CC(C#N)(CC(=O)OCC)c1ccc(F)cc1` was 68 to 70 °C; that for `CC(=O)N(C(C)=O)c1nc2n(n1)CCc1ccccc1-2` was 139 to 140 °C. The compound `Cn1nnnc1CC(O)(c1ccc(F)cc1)c1ccc(F)cc1` had a melting point of 116 to 118 °C. The same measure for `CS(=O)(=O)Cc1cccc(CNC(=O)c2nc3scc(COCc4ccc(C(=O)O)cc4)c3c(=O)[nH]2)c1`: 246 to 248 °C; for `COc1ccc(N2CCN(Cc3ccc(Nc4ccnc5cc(C(F)(F)F)ccc45)cc3)CC2)cc1`: 235 to 237 °C. The same measure for `CC(C)(C#N)c1cc(-n2cncc2C#N)cc(C(C)(C)C#N)c1`: 88 to 90 °C; for `COc1ccc(Cl)cc1-n1c(-c2ccc(C(F)(F)F)cc2)n[nH]c1=S`: 275 to 280 °C.

Compound `COc1cc(N)c(Cl)cc1C(=O)NCC1CCN(CCCCCSc2ccccc2)CC1` showed a melting point of 143 to 144 °C.

In turn, `CC(C)C(=O)Nc1ccc(OCC(O)CNC(C)(C)C)c(C#N)c1` (configuration not stated) came in with a melting point of 118 to 121 °C. The value for `Cc1cc(-c2nc3cccnn3c2-c2ccnc(NC(=O)c3ccnc(Cl)c3)c2)ccc1F` was 224 to 225 °C.

For the compound `O=C(O)c1cn(-c2ccc(F)cc2)c2c(F)c(N3Cc4cccc(O)c4C3)c(F)cc2c1=O`, the melting point was > 300 °C. As to `Cn1c(=O)c2c(nc(/C=C/c3ccc4c(c3)OCO4)n2C)n(C)c1=O`, the melting point is > 300 °C. The value for `CC1(C)c2ccccc2-c2ccc(C3c4ccc(-c5ccc(-c6ccc(C=C(C#N)C(=O)O)s6)s5)c5c4C(CCC5)N3c3ccccc3)cc21` (configuration not stated) was 251 °C. The same measure for `CNC(=O)CCc1cn(Cc2ccc(C(=O)O)cc2OC)c2cc(C(=O)NCC3CCCC3)ccc12`: 274 to 275 °C.

The compound `O=[N+]([O-])c1ccc(CCc2nnco2)cc1` showed a melting point of 93 to 94 °C.

With `COc1cc(Nc2c(C#N)cnc3cc4cc(OC)c(OCCN5CCC(O)CC5)cc4cc23)c(Cl)cc1Cl`, the melting point is 150 to 160 °C. The value for `CNc1nc(-c2cccc(NC(=O)c3cccnc3)c2)c2cc(OC)c(OC)cc2n1` was 251 to 253 °C; that for `O=C(O)CCc1cn(Cc2ccc(C(=O)NCc3ccc(C(F)(F)F)cc3)cc2)nc1-c1ccccc1` was 151 to 152 °C; that for `CCc1cc2c(cc1F)c(S(C)(=O)=O)c(-c1ccc(S(=O)(=O)NC(C)(C)C)cn1)n2-c1ncccn1` was 244 to 248 °C. The value for `COc1ccc([N+](=O)[O-])c(C(C)=O)c1OC` was 64 to 66 °C; that for `Cc1cc2c(cc1Sc1ccc(C(=O)Nc3ccc(O)cc3)cc1)C(C)(C)CCC2(C)C` was 236 to 237 °C; that for `Cc1nc2c(s1)Cc1cc(Cl)ccc1-2` was 94 °C. Consider `CS(=O)(=O)c1ccc(C(=O)c2c(O)cc(Cl)cc2Cl)c(Cl)c1`, for which the melting point was 123 to 126 °C.
